Holding throughout (assay): kinase profiling panel
Holding throughout (assay type): biochemical

One assay addresses BTK (Homo sapiens, UniProt Q06187). The settings on record: read-out: % Activity Remaining. The text has this:
(§1) Protein kinase profiling against a Dundee panel of 140 protein kinases was undertaken at the International Centre for Protein Kinase Profiling. The result for each kinase was presented as a mean kinase activity of the reaction taken in triplicate relative to a control sample treated with DMSO. Assay conditions and abbreviations are available at http://www.kinase-screen.mrc.ac.uk.

A further assay has as its target PIM1 (Homo sapiens, UniProt P11309). The settings on record: read-out: % Activity Remaining.
Source text: as §1

A further assay addresses PRK2 (Homo sapiens, UniProt Q16513). The settings on record: read-out: % Activity Remaining.
Source text: as §1

Another assay concerns the target HIPK2 (Homo sapiens, UniProt Q9H2X6). The settings on record: read-out: % Activity Remaining.
Source text: as §1

In a further assay the target is MAPKAP-K3 (Homo sapiens, UniProt Q16644). The settings on record: read-out: % Activity Remaining.
Source text: as §1

The next assay deals with MARK3 (Homo sapiens, UniProt P27448). The settings on record: read-out: % Activity Remaining.
Source text: as §1

The target in another assay is TIE2 (Homo sapiens, UniProt Q02763). The settings on record: read-out: % Activity Remaining.
Source text: as §1

A further assay concerns the target CHK2 (Homo sapiens, UniProt O96017). The settings on record: read-out: % Activity Remaining.
Source text: as §1

The next assay has as its target IR (Homo sapiens, UniProt P06213). The settings on record: read-out: % Activity Remaining.
Source text: as §1

The target of a further assay is CK1 gamma 2 (Homo sapiens, UniProt P78368). The settings on record: read-out: % Activity Remaining.
Source text: as §1

The next assay concerns the target FGF-R1 (Homo sapiens, UniProt P11362). The settings on record: read-out: % Activity Remaining.
Source text: as §1

The target of a further assay is CSK (Homo sapiens, UniProt P41240). The settings on record: read-out: % Activity Remaining.
Source text: as §1

A further assay concerns the target CLK2 (Homo sapiens, UniProt P49760). The settings on record: read-out: % Activity Remaining.
Source text: as §1

For the next assay, the target named is PIM2 (Homo sapiens, UniProt Q9P1W9). The settings on record: read-out: % Activity Remaining.
Source text: as §1

A further assay has as its target T1, MKK6 (Homo sapiens, UniProt P52564).
T1 sequence (P52564 1-334): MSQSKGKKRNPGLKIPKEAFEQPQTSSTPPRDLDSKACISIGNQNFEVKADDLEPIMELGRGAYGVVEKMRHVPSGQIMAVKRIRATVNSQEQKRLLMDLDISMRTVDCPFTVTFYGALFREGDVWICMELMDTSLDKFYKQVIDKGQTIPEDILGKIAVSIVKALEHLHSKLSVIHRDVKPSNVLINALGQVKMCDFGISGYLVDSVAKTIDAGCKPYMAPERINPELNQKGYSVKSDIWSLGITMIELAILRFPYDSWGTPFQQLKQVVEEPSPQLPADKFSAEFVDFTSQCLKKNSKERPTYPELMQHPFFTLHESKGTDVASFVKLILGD
The settings on record: read-out: % Activity Remaining.
Source text: as §1

The subject of a further assay is AMPK (hum). The settings on record: 1 µM.
Source text: as §1

The target in a further assay is T2, ERK8 (Homo sapiens, UniProt Q8TD08).
T2 sequence (Q8TD08 1-544): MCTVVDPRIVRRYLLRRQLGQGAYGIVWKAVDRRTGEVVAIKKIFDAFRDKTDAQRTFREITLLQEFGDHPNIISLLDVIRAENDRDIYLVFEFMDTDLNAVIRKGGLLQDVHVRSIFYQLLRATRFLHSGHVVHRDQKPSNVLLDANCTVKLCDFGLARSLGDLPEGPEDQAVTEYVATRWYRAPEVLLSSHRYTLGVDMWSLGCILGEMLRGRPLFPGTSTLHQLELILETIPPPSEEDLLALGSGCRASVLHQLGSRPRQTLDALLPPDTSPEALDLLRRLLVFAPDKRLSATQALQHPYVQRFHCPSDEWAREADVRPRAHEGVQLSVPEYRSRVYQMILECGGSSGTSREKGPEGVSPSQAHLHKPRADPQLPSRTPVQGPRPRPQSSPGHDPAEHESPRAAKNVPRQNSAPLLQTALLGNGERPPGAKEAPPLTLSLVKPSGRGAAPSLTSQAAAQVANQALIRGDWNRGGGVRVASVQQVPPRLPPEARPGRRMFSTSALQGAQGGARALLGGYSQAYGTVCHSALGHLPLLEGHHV
The settings on record: read-out: % Activity Remaining.
Source text: as §1

For the next assay, the target named is T3, DYRK2 (Homo sapiens, UniProt Q92630).
T3 sequence (Q92630 1-601): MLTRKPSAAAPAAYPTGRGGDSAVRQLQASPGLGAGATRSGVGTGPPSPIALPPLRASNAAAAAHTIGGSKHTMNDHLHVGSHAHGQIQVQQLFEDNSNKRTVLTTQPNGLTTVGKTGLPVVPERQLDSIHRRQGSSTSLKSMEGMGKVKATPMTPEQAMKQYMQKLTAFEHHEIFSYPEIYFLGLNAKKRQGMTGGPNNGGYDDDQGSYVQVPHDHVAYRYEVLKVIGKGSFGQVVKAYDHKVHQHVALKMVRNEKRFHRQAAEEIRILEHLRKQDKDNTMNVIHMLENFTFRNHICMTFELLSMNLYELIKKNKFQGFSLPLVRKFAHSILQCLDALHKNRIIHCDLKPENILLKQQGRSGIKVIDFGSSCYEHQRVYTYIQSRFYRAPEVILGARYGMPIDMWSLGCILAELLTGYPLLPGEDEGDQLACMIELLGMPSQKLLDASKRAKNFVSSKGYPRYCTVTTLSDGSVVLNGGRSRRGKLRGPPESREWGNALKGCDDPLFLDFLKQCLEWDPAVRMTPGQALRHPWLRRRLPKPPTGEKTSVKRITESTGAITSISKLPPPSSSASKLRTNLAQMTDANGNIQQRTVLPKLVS
The settings on record: read-out: % Activity Remaining.
Source text: as §1

The target in another assay is PAK5 (Homo sapiens, UniProt Q9P286). The settings on record: read-out: % Activity Remaining.
Source text: as §1

Like-named read-outs stand apart in the source and are kept apart here.

Chain of PIM1 (P11309 whole entry): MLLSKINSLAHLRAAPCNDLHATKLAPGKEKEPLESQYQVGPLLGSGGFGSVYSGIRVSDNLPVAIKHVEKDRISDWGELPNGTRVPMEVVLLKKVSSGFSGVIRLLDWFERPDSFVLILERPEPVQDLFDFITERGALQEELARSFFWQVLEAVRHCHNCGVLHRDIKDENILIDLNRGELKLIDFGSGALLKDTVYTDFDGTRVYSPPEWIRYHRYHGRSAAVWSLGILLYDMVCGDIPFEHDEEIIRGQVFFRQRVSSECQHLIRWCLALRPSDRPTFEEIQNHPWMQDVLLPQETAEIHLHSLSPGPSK
Chain of CSK (P41240 whole entry): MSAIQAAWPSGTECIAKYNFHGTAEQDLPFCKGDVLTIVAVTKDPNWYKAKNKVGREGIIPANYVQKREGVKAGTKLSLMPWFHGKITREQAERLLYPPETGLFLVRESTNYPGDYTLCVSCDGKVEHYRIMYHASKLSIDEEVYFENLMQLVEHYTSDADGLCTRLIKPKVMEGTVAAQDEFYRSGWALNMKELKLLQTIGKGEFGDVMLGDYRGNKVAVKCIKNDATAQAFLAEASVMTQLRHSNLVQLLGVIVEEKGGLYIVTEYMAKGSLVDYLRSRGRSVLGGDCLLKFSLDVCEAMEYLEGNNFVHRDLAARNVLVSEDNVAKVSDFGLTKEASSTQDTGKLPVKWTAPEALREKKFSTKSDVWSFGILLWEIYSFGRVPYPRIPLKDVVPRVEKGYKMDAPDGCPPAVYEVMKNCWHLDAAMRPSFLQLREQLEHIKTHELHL
Chain of BTK (Q06187 whole entry): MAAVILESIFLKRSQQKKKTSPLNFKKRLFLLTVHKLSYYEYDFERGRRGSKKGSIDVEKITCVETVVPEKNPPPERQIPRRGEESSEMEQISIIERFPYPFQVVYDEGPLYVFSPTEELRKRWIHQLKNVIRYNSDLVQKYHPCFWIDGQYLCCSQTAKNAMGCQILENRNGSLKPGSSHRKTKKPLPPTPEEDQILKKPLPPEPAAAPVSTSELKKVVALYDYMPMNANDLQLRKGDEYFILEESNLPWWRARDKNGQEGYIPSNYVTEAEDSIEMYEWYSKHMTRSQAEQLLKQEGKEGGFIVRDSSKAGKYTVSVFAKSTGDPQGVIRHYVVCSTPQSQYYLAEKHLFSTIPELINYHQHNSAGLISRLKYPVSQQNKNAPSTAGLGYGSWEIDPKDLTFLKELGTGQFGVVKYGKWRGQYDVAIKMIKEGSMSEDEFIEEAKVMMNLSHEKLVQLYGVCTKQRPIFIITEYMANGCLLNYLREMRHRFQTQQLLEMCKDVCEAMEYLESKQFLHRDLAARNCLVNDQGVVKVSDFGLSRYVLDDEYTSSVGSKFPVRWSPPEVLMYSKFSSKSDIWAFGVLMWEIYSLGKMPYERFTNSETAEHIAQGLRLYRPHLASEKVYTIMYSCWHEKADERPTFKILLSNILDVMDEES
Chain of PAK5 (Q9P286 whole entry): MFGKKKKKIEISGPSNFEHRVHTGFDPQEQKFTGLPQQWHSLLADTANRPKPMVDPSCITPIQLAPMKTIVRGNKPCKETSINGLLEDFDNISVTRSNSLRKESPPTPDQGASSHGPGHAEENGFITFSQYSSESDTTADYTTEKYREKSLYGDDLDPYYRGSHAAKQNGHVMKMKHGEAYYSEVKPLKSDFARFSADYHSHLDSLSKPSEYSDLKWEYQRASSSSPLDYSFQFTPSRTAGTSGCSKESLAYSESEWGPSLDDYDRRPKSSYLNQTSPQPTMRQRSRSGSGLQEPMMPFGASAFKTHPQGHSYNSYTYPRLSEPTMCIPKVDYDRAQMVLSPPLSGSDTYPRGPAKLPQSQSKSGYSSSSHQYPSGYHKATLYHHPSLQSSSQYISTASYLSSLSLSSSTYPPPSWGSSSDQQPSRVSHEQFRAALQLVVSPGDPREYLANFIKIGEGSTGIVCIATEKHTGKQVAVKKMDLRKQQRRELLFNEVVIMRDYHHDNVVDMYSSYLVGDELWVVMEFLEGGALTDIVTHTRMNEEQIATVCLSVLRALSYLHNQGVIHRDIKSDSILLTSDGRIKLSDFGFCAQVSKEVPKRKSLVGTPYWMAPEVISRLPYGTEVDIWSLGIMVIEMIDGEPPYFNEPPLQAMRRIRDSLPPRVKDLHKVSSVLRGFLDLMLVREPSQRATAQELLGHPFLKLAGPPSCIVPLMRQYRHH
Chain of CK1 gamma 2 (P78368 whole entry): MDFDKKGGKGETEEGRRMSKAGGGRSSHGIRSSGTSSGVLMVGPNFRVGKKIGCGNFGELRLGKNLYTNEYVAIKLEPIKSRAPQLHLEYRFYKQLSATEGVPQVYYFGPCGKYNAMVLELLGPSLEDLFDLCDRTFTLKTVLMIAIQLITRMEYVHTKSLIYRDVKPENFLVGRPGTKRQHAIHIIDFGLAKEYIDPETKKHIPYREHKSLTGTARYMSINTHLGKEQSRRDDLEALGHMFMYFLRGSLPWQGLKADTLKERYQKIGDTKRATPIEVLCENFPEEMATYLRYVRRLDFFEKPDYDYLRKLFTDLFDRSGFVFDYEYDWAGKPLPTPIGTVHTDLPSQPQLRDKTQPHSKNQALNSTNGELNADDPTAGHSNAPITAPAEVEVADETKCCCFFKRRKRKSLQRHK
Chain of PRK2 (Q16513 whole entry): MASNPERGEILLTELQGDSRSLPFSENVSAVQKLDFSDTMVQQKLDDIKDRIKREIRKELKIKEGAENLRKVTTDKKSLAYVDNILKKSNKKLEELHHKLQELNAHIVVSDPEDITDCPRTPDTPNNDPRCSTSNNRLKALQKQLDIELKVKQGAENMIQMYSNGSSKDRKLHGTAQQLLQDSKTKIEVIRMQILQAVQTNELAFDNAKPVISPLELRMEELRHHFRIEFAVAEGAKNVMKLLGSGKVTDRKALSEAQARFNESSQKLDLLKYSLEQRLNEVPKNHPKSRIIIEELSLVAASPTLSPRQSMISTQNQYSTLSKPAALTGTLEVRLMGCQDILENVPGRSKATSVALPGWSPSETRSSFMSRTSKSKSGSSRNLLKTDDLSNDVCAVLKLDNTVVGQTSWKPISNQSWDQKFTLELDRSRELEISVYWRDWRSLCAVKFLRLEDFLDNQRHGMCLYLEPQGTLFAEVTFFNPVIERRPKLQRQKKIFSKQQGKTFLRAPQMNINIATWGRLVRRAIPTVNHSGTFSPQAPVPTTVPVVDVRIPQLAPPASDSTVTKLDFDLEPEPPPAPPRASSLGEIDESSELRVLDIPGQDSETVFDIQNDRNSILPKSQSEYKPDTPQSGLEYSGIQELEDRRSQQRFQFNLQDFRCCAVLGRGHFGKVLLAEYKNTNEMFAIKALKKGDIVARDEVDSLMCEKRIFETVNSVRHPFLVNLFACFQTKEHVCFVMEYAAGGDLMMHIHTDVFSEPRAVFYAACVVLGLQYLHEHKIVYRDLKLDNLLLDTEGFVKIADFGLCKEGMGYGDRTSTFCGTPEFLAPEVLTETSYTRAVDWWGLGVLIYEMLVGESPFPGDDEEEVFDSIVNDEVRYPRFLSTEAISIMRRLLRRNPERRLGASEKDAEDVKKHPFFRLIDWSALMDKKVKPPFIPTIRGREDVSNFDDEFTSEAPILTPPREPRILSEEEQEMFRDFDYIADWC
Chain of IR (P06213 28-1382): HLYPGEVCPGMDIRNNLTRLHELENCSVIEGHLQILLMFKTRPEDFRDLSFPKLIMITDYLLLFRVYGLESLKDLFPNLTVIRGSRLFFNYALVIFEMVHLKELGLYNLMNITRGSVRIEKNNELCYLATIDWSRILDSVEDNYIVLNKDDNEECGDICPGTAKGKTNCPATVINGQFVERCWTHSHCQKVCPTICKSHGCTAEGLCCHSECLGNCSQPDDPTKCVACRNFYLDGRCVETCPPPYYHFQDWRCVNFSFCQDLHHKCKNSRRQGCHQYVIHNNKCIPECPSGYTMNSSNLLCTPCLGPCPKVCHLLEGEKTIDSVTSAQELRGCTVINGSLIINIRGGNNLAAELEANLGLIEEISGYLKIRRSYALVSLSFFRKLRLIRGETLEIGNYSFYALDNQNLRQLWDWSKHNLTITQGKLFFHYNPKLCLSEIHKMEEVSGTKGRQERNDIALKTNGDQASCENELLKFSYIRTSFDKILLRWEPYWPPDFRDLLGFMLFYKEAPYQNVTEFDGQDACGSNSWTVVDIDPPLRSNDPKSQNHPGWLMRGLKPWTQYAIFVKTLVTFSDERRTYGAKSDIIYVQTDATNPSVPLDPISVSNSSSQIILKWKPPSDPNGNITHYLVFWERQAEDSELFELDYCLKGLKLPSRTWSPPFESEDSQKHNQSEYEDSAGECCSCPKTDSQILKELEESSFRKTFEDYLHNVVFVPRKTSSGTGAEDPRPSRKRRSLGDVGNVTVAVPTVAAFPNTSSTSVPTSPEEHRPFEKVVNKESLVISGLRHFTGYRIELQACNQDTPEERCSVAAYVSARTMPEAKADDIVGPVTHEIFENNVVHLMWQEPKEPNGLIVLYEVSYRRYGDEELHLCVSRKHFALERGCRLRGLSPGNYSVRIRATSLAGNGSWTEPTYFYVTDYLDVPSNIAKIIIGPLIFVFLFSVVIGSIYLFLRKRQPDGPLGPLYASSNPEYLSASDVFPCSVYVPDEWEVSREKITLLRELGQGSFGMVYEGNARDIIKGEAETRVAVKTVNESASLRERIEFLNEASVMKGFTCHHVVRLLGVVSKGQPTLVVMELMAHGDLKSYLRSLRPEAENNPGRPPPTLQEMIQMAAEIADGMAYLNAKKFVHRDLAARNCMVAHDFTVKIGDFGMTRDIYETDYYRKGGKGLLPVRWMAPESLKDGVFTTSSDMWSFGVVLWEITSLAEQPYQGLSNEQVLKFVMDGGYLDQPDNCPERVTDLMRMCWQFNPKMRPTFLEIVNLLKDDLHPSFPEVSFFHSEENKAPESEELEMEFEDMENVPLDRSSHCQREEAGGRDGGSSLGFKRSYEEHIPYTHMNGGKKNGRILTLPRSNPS

As to `COc1ccc(Cl)c(S(=O)(=O)Nc2ccc(-c3nc(OC[C@H]4CNCCO4)c4c(C)n[nH]c4n3)cc2)c1` [290-R, reference compound], the remaining activity at 1 µM came to 91% at BTK; 83% on PIM1; 76% on PRK2; 50% at HIPK2; 105% at MAPKAP-K3; 89% on MARK3. Further, the remaining activity at 1 µM at TIE2 stood at 17%; at CHK2, 9%; at IR it was 102%; on CK1 gamma 2 it was 112%; on FGF-R1, 104%; on CSK, 66%. For the same compound, the remaining activity at 1 µM at CLK2 was found to be 88%; at PIM2, 105%; on MKK6 it was 102%; on ERK8, 18%; on DYRK2, 100%; at PAK5, 110%. Also, the “% Activity Remaining” value in the assay with AMPK (hum) was determined as 15%.
As to `Cc1ccc(F)c(S(=O)(=O)Nc2ccc(-c3nc(OC[C@H]4CNCCO4)c4cn[nH]c4n3)cc2)c1` [308-R, reference compound], the remaining activity at 1 µM on BTK stood at 59%; on PIM1, 104%; at PRK2 it was 82%; at HIPK2 it was 47%; at MAPKAP-K3 it was 83%; at MARK3, 103%. Further, the remaining activity at 1 µM is 51% at TIE2; 24% at CHK2; 110% on IR; 67% at CK1 gamma 2; 115% on FGF-R1; 96% on CSK. Moreover, the remaining activity at 1 µM on CLK2 came to 104%; on PIM2 it was 127%; on MKK6 it was 66%; at ERK8, 49%; on DYRK2, 74%; on PAK5 it was 83%. Further, the “% Activity Remaining” value with AMPK (hum) is on record as 78%.
On to `Cc1ccc(F)c(S(=O)(=O)Nc2ccc(-c3nc(OC[C@H]4CN(CCCCCCOCCOCCOCC(=O)N[C@H](C(=O)N5C[C@H](O)C[C@H]5C(=O)NCc5ccc(-c6scnc6C)cc5)C(C)(C)C)CCO4)c4cn[nH]c4n3)cc2)c1` [SGK3-PROTAC1], for which the remaining activity at 1 µM on BTK (1 µM) came out at 97%; at PIM1 (1 µM), 94%; on PRK2 (1 µM) it was 105%; at HIPK2 (1 µM) it was 109%; at MAPKAP-K3 (1 µM) it was 79%; on MARK3 (1 µM) it was 98%. The remaining activity at 1 µM on TIE2 (1 µM) is 64%; at CHK2 (1 µM) it was 85%; at IR (1 µM) it was 103%; on CK1 gamma 2 (1 µM), 101%; at FGF-R1 (1 µM) it was 108%; at CSK (1 µM), 118%. The remaining activity at 1 µM came out at 104% at CLK2 (1 µM); 98% at PIM2 (1 µM); 123% at MKK6 (1 µM); 94% at ERK8 (1 µM); 102% on DYRK2 (1 µM); 88% at PAK5 (1 µM). For the same compound, the “% Activity Remaining” value with AMPK (hum) was found to be 105%.
In the case of `Cc1ccc(F)c(S(=O)(=O)Nc2ccc(-c3nc(OC[C@H]4CN(CCCCCCOCCOCCOCC(=O)N[C@H](C(=O)N5C[C@@H](O)C[C@H]5C(=O)NCc5ccc(-c6scnc6C)cc5)C(C)(C)C)CCO4)c4cn[nH]c4n3)cc2)c1` [cisSGK3-PROTAC1], the remaining activity at 1 µM on BTK (1 µM) was 91%; on PIM1 (1 µM), 97%; on PRK2 (1 µM), 101%; at HIPK2 (1 µM), 100%; at MAPKAP-K3 (1 µM), 77%; on MARK3 (1 µM), 109%. In addition, the remaining activity at 1 µM at TIE2 (1 µM) amounted to 81%; at CHK2 (1 µM) it was 99%; on IR (1 µM), 94%; on CK1 gamma 2 (1 µM), 106%; on FGF-R1 (1 µM), 106%; at CSK (1 µM), 113%. The remaining activity at 1 µM on CLK2 (1 µM) turned out to be 85%; at PIM2 (1 µM), 105%; at MKK6 (1 µM) it was 108%; at ERK8 (1 µM), 86%; on DYRK2 (1 µM), 97%; at PAK5 (1 µM), 105%. The “% Activity Remaining” value in the assay on AMPK (hum) is reported as 108%.

Usually remaining activity stands for the signal under treatment as a percentage of the control signal.
